Laboratory results reported in PubChem BioAssay (NCI).
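Briefly, cells in 96-well plates were exposed to five compound concentrations for 48 h, and endpoints were estimated by linear interpolation. TGI denotes the concentration required for complete inhibition of growth.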

How the values were obtained:
Assay in all cases: NCI-60 cell line screen, 48 h
HCC-2998 colon = test system: HCC-2998 colon
T-47D breast = test system: T-47D breast
KM12 colon = test system: KM12 colon
SW-620 colon = test system: SW-620 colon
MOLT-4 leukemia = test system: MOLT-4 leukemia
RPMI-8226 leukemia = test system: RPMI-8226 leukemia
OVCAR-3 ovarian = test system: OVCAR-3 ovarian
CAKI-1 renal = test system: CAKI-1 renal
LOX IMVI melanoma = test system: LOX IMVI melanoma
SF-295 CNS = test system: SF-295 CNS
NCI/ADR-RES ovarian = test system: NCI/ADR-RES ovarian
NCI-H460 lung = test system: NCI-H460 lung
ACHN renal = test system: ACHN renal
SR leukemia = test system: SR leukemia
U251 CNS = test system: U251 CNS
HOP-92 NSCLC = test system: HOP-92 NSCLC
DU-145 prostate = test system: DU-145 prostate
SN12C renal = test system: SN12C renal
UACC-257 melanoma = test system: UACC-257 melanoma
RXF 393 renal = test system: RXF 393 renal

CSc1c(C#N)c2n(c3ccccc13)c1ccccc1[n+]2C
TGI (HCC-2998 colon): 64.8 µM
TGI (T-47D breast): > 100 µM
TGI (KM12 colon): > 100 µM
TGI (SW-620 colon): > 100 µM
TGI (MOLT-4 leukemia): 38.6 µM
TGI (RPMI-8226 leukemia): 85.6 µM
TGI (OVCAR-3 ovarian): > 100 µM
TGI (CAKI-1 renal): 84.3 µM
TGI (LOX IMVI melanoma): > 100 µM
TGI (SF-295 CNS): > 100 µM
TGI (NCI/ADR-RES ovarian): 68.4 µM
TGI (NCI-H460 lung): > 100 µM
TGI (ACHN renal): 50.9 µM
TGI (SR leukemia): > 100 µM
TGI (U251 CNS): 73.7 µM
TGI (HOP-92 NSCLC): > 100 µM
TGI (DU-145 prostate): 92.6 µM
TGI (SN12C renal): 53.1 µM
TGI (UACC-257 melanoma): 67.8 µM

CCOc1cc(C2CC(c3ccc(NS(=O)(=O)c4cc([N+](=O)[O-])ccc4C)cc3)=NN2)ccc1O (centres undefined)
TGI (T-47D breast): 82.9 µM
TGI (SW-620 colon): > 100 µM
TGI (MOLT-4 leukemia): 48.8 µM
TGI (RPMI-8226 leukemia): > 100 µM
TGI (RXF 393 renal): 40.4 µM
TGI (OVCAR-3 ovarian): 37.3 µM
TGI (CAKI-1 renal): > 100 µM
TGI (LOX IMVI melanoma): 53 µM
TGI (NCI/ADR-RES ovarian): 71.3 µM
TGI (ACHN renal): 76.7 µM
TGI (SR leukemia): 53.6 µM
TGI (HOP-92 NSCLC): > 100 µM
TGI (DU-145 prostate): > 100 µM
TGI (SN12C renal): 65.2 µM

C/C(O)=C/c1nc2ccc([N+](=O)[O-])cc2nc1/C=C(/C)O
TGI (T-47D breast): 87.6 µM
TGI (KM12 colon): > 100 µM
TGI (SW-620 colon): > 100 µM
TGI (MOLT-4 leukemia): 72.2 µM
TGI (RPMI-8226 leukemia): 65.1 µM
TGI (RXF 393 renal): > 100 µM
TGI (OVCAR-3 ovarian): > 100 µM
TGI (CAKI-1 renal): > 100 µM
TGI (LOX IMVI melanoma): > 100 µM
TGI (SF-295 CNS): > 100 µM
TGI (NCI/ADR-RES ovarian): > 100 µM
TGI (NCI-H460 lung): 51.5 µM
TGI (ACHN renal): > 100 µM
TGI (SR leukemia): 47 µM
TGI (U251 CNS): > 100 µM
TGI (HOP-92 NSCLC): 84.3 µM
TGI (DU-145 prostate): > 100 µM
TGI (SN12C renal): > 100 µM
TGI (UACC-257 melanoma): 72.7 µM

Cc1c2c(OCCCCN3CCN(c4ncccn4)CC3)nn(C)c(=O)c2c(C)n1-c1ccccc1
TGI (HCC-2998 colon): 35 µM
TGI (T-47D breast): 45.8 µM
TGI (KM12 colon): 43.1 µM
TGI (SW-620 colon): 69.4 µM
TGI (MOLT-4 leukemia): 84.6 µM
TGI (RPMI-8226 leukemia): 74.4 µM
TGI (RXF 393 renal): 41.8 µM
TGI (OVCAR-3 ovarian): 41.9 µM
TGI (CAKI-1 renal): 35.3 µM
TGI (LOX IMVI melanoma): 44.5 µM
TGI (SF-295 CNS): 32.4 µM
TGI (NCI/ADR-RES ovarian): 46.2 µM
TGI (NCI-H460 lung): 35.6 µM
TGI (ACHN renal): 31.3 µM
TGI (U251 CNS): 32 µM
TGI (HOP-92 NSCLC): 31.8 µM
TGI (DU-145 prostate): 35.8 µM
TGI (SN12C renal): 34.5 µM
TGI (UACC-257 melanoma): 33.5 µM

CC(C)CNC(=O)Cn1c(-c2ccccc2)cc2ccccc21
TGI (HCC-2998 colon): > 100 µM
TGI (T-47D breast): > 100 µM
TGI (KM12 colon): > 100 µM
TGI (SW-620 colon): > 100 µM
TGI (MOLT-4 leukemia): > 100 µM
TGI (RPMI-8226 leukemia): > 100 µM
TGI (RXF 393 renal): > 100 µM
TGI (OVCAR-3 ovarian): > 100 µM
TGI (CAKI-1 renal): > 100 µM
TGI (LOX IMVI melanoma): > 100 µM
TGI (SF-295 CNS): > 100 µM
TGI (NCI/ADR-RES ovarian): > 100 µM
TGI (NCI-H460 lung): > 100 µM
TGI (ACHN renal): > 100 µM
TGI (SR leukemia): > 100 µM
TGI (U251 CNS): > 100 µM
TGI (DU-145 prostate): > 100 µM
TGI (SN12C renal): > 100 µM
TGI (UACC-257 melanoma): > 100 µM

CN(C)CCNc1ncnc2nc(-c3ccc4ccccc4c3)[nH]c12
TGI (HCC-2998 colon): > 100 µM
TGI (T-47D breast): > 100 µM
TGI (KM12 colon): > 100 µM
TGI (SW-620 colon): > 100 µM
TGI (MOLT-4 leukemia): > 100 µM
TGI (RPMI-8226 leukemia): > 100 µM
TGI (RXF 393 renal): > 100 µM
TGI (OVCAR-3 ovarian): > 100 µM
TGI (CAKI-1 renal): > 100 µM
TGI (LOX IMVI melanoma): > 100 µM
TGI (SF-295 CNS): > 100 µM
TGI (NCI/ADR-RES ovarian): > 100 µM
TGI (NCI-H460 lung): > 100 µM
TGI (ACHN renal): > 100 µM
TGI (SR leukemia): > 100 µM
TGI (U251 CNS): > 100 µM
TGI (DU-145 prostate): > 100 µM
TGI (SN12C renal): > 100 µM
TGI (UACC-257 melanoma): > 100 µM

c1ccc2c(Cc3nnc4sc(SSc5nn6c(Cc7c[nH]c8ccccc78)nnc6s5)nn34)c[nH]c2c1
TGI (HCC-2998 colon): 30.4 µM
TGI (T-47D breast): > 100 µM
TGI (KM12 colon): 70.3 µM
TGI (SW-620 colon): 37.6 µM
TGI (MOLT-4 leukemia): 70.6 µM
TGI (RXF 393 renal): 50.9 µM
TGI (OVCAR-3 ovarian): 29.2 µM
TGI (CAKI-1 renal): 62.6 µM
TGI (SF-295 CNS): 44.1 µM
TGI (NCI/ADR-RES ovarian): 44.4 µM
TGI (NCI-H460 lung): 89.3 µM
TGI (ACHN renal): > 100 µM
TGI (SR leukemia): 41.7 µM
TGI (U251 CNS): 58.6 µM
TGI (HOP-92 NSCLC): > 100 µM
TGI (DU-145 prostate): 67.4 µM
TGI (SN12C renal): 56.3 µM
TGI (UACC-257 melanoma): > 100 µM

Cc1c(NC2(C)C(=O)N(/N=C/c3ccccc3)N=C2c2ccccc2)n[nH]c1-c1ccccc1 (centres undefined)
TGI (HCC-2998 colon): > 100 µM
TGI (T-47D breast): > 100 µM
TGI (KM12 colon): > 100 µM
TGI (SW-620 colon): > 100 µM
TGI (MOLT-4 leukemia): > 100 µM
TGI (RPMI-8226 leukemia): > 100 µM
TGI (RXF 393 renal): > 100 µM
TGI (OVCAR-3 ovarian): > 100 µM
TGI (CAKI-1 renal): > 100 µM
TGI (LOX IMVI melanoma): > 100 µM
TGI (SF-295 CNS): > 100 µM
TGI (NCI/ADR-RES ovarian): > 100 µM
TGI (NCI-H460 lung): > 100 µM
TGI (ACHN renal): > 100 µM
TGI (U251 CNS): > 100 µM
TGI (HOP-92 NSCLC): > 100 µM
TGI (DU-145 prostate): > 100 µM
TGI (SN12C renal): > 100 µM
TGI (UACC-257 melanoma): > 100 µM

C[N+](C)(C)c1ncnc2c1ncn2C1CCCCO1 (centres undefined)
TGI (T-47D breast): > 100 µM
TGI (KM12 colon): > 100 µM
TGI (SW-620 colon): > 100 µM
TGI (MOLT-4 leukemia): > 100 µM
TGI (RPMI-8226 leukemia): > 100 µM
TGI (RXF 393 renal): > 100 µM
TGI (OVCAR-3 ovarian): > 100 µM
TGI (CAKI-1 renal): > 100 µM
TGI (LOX IMVI melanoma): > 100 µM
TGI (SF-295 CNS): > 100 µM
TGI (NCI/ADR-RES ovarian): > 100 µM
TGI (NCI-H460 lung): > 100 µM
TGI (ACHN renal): > 100 µM
TGI (SR leukemia): > 100 µM
TGI (U251 CNS): > 100 µM
TGI (HOP-92 NSCLC): > 100 µM
TGI (DU-145 prostate): > 100 µM
TGI (SN12C renal): > 100 µM
TGI (UACC-257 melanoma): > 100 µM

COc1ccc(OC)c2c1C1CCC(=O)N1CN2C(C)=O (centres undefined)
TGI (HCC-2998 colon): > 100 µM
TGI (T-47D breast): > 100 µM
TGI (KM12 colon): > 100 µM
TGI (SW-620 colon): > 100 µM
TGI (MOLT-4 leukemia): > 100 µM
TGI (RPMI-8226 leukemia): > 100 µM
TGI (RXF 393 renal): > 100 µM
TGI (OVCAR-3 ovarian): > 100 µM
TGI (CAKI-1 renal): > 100 µM
TGI (LOX IMVI melanoma): > 100 µM
TGI (SF-295 CNS): > 100 µM
TGI (NCI/ADR-RES ovarian): > 100 µM
TGI (NCI-H460 lung): > 100 µM
TGI (ACHN renal): > 100 µM
TGI (U251 CNS): > 100 µM
TGI (HOP-92 NSCLC): > 100 µM
TGI (DU-145 prostate): > 100 µM
TGI (SN12C renal): > 100 µM
TGI (UACC-257 melanoma): > 100 µM
